# Experimental data taken from patent US20050038093A1, “Treating diabetic retinopathy with angiotensin II receptor blockers” (Boehringer Ingelheim International GmbH, priority 2003, published 2005).
# Columns and labels:
# [1] = IDNT study (Lewis et al, 2001); cited from earlier work
# [2] = tested on: pericytes isolated from bovine retina; assay: Measurement of reactive oxygen species in pericytes; assay type: cell-based; conditions: for inhibition of angiotensin II-induced increase in the generation of reactive oxygen species in pericytes: 10^-7 M telmisartan, 10^-7 or 10^-6 M angiotensin II
# Method: (§1) Pericytes were isolated from bovine retina and maintained in Dulbecco's Eagle's medium supplemented with 20% of fetal bovine serum (FBS) as described in Yamagishi et al, Circulation 87:1969, 1993.
# Angiotensin II treatment was carried out in medium containing 2% FBS. Pericytes were treated with or without 10^−7 or 10^−6 M angiotensin II in the presence or absence of 10^−7 M telmisartan for 24 hours. Then the intracellular formation of reactive oxygen species was detected as described in Yamagishi et al, A J Biol Chem 276:25096, 2001 by using the fluorescent probe CM-H2DCFDA (Molecular Probes Inc, Eugene, Oreg.).
# pericytes = assay: Measurement of [3H]thymidine incorporation in pericytes; assay type: cell-based, bovine; conditions: 10^-7 M angiotensin, 24 hours
# Method: as §1
# Pericytes were treated with or without 10^−7 M angiotensin in the presence or absence of 1 mM N-acetylcystein (NAC) for 24 hours, and then [^3H]thymidine incorporation in cells was determined as described in Yamagishi et al, FEBS Lett 384:103, 1996.
# VEGF mRNA = assay: Quantitative reverse transcription PCR of VEGF mRNA in pericytes; assay type: cell-based, bovine; conditions: 10^-7 M angiotensin II, 4 hours; for inhibition of angiotensin II-induced up-regulation of VEGF mRNA levels in pericytes: 10^-7 M telmisartan or 1 mM NAC
# Method: Sequences and primers for detecting VEGF and β-actin mRNAs are described in Yamagishi et al, J Biol Chem 272:8723, 1997.
# (§2) Poly(A)^+ RNAs were isolated from cells treated with or without 10^−7 M angiotensin II in the presence or absence of 10^−7 M telmisartan or 1 mM NAC for 4 hours, and analyzed by quantitative reverse transcription PCR (RT-PCR) as described in Yamagishi et al, Diabetologia 41:1435, 1998. The amounts of poly(A)^+ RNA templates (about 30 ng) and cell cycle numbers for amplification (28 cycles for VEGF gene and 22 cycles for β-actin gene) were chosen in quantitative ranges were reactions proceeded linearly, which had been determined by plotting signal intensities as functions of the template amounts and cell cycle numbers as described in Yamagishi et al, J Biol Chem 277:20309, 2002.
# It has been reported that there exist five alternatively spliced products from the single VEGF gene. They are designated as VEGF121, VEGF145, VEGF165 VEGF189, and VEGF206. Since Northern blot analysis can not clearly discriminate these five mRNA products, we employed a more sensitive semi-quantitative RT-PCR technique as described in Okamoto et al, FASEB J 16:1928, 2002. In these experiments, cDNA products of 486 and 618 base pairs length are amplified from mRNAs for VEGF121 and VEGF165, respectively. […] The VEGF mRNA level was about 1.5 fold higher than the basal level when exposed to 10^−7 M angiotensin II.
# PDGF-B mRNA = assay: Quantitative reverse transcription PCR of PDGF-B mRNA in cultured retinal pericytes; assay type: cell-based, bovine; conditions: 10^-7 M angiotensin II, 4 hours; for inhibition of angiotensin II induced up-regulation of PDGF mRNA levels: 10^-7 M telmisartan or 1 mM NAC
# Method: as §2, with “To investigate the effects of angiotensin II on PDGF-B gene expression in cultured retinal pericytes, poly(A)^+” for “Poly(A)^+”, “RT-PCR” for “quantitative reverse transcription PCR (RT-PCR)”, “Kidney Int 63:464, 2003.” for “Diabetologia 41:1435, 1998.”, “PDGF-B” for “VEGF”, “2002. Sequences of primers for detecting bovine β-actin mRNAs were the same as described in Okamoto et al, FASEB J 16:1928, 2002.” for “2002.”
# [3] = EUCLID study, cited from earlier work
compound,measurement,setting,value
CCCCC1=NC2(CCCC2)C(=O)N1Cc1ccc(-c2ccccc2-c2nnn[nH]2)cc1 [irbesartan],protection against the progression of nephropathy due to type II diabetes,[1],effective
"angiotensin II (DRVYIHPF; Angiotensin-2; UniProt P01019 25-32, looked up) [stimulus used on pericytes]",increase of intracellular generation of reactive oxygen species,"[2]; 10^-6 M angiotensin II, 24 hours, medium with 2% FBS",about 1.3 fold
same,effect on DNA synthesis in pericytes ([3H]thymidine incorporation),pericytes,significantly inhibited
same,VEGF mRNA level relative to basal level,VEGF mRNA,about 1.5 fold
same,PDGF-B mRNA level relative to basal level,PDGF-B mRNA,about 5 fold
"CC(=O)N[C@@H](CS)C(=O)O [NAC, N-acetylcystein]",reversal of angiotensin II-induced increase in generation of reactive oxygen species by antioxidant,[2]; added during treatment of pericytes with angiotensin II,reverses the increase
same,prevention of angiotensin II-induced decrease in DNA synthesis in pericytes,pericytes; 1 mM NAC,significantly prevented
same,inhibition of angiotensin II-induced up-regulation of VEGF mRNA levels in pericytes,VEGF mRNA,completely inhibit
same,inhibition of angiotensin II induced up-regulation of PDGF mRNA levels,PDGF-B mRNA,significantly inhibit
NCCCC[C@H](N[C@@H](CCc1ccccc1)C(=O)O)C(=O)N1CCC[C@H]1C(=O)O [lisinopril],risk of progression to proliferative retinopathy,[3],significantly reduced
same,reduction of the risk of progression of retinopathy,[3]; retinopathy not a primary endpoint,approximately 50%
CCCc1nc2c(C)cc(-c3nc4ccccc4n3C)cc2n1Cc1ccc(-c2ccccc2C(=O)O)cc1 [telmisartan],effect of compound alone on generation of reactive oxygen species,"[2]; 10^-7 M telmisartan without angiotensin II, 24 hours",did not affect
same,inhibition of angiotensin II-induced increase in the generation of reactive oxygen species in pericytes,[2]; 24 hours,inhibit
same,inhibition of angiotensin II-induced increase in the generation of reactive oxygen species in pericytes,"[2]; 24 hours, listed as Telmisartan",completely inhibit
same,inhibition of angiotensin II-induced up-regulation of VEGF mRNA levels in pericytes,VEGF mRNA,completely inhibit
same,inhibition of angiotensin II induced up-regulation of PDGF mRNA levels,PDGF-B mRNA,significantly inhibit
